Measurements taken from patent publication US8278355B2, “Isovaline for treatment of pain” (Therexcell Pharma Inc., priority 2006, dated 2012).

Assays:
[1] = system: pain of formalin injection in the mouse foot; assay: Formalin hindpaw licking test, lumbar intrathecal pre-treatment; assay type: in vivo, mice; conditions: for activity against peripherally induced pain, administered to the lumbar cord: overall summary; for cumulative paw licking / licking, early phase (reflecting acute pain) / licking, late phase (reflecting chronic pain): 250 micromolar in 5 microliters, lumbar intrathecal; for cumulative paw licking: 5 minutes before formalin, 40 min, p-value<0.001; for licking, early phase (reflecting acute pain) / licking, late phase (reflecting chronic pain): FIG. 4
Description: The effects of compound (Ib) and (Ic) were determined in the acute and chronic peripheral pain model according to Kolesnikov, Cristea, Oksman, Torosjan, and Wilson (Brain Research 17: 217-223, 2004). Use of this model involves pre-treatment with the test compound and injection of formalin (5% in 20 microliters) into the right hindpaw of mice. Groups of mice (n=10) were injected intrathecally into the lumbar segment with compound (Ib) or (Ic) at 250 micromolar in 5 microliters, at 5 minutes prior to subcutaneous formalin injection into the right hindpaw. The mice were monitored for 40 min for licking activity and assessed according to the method of Abbott, Franklin, and Westbrook (Pain 60: 91-102, 1995).

[2] = system: strychnine-induced allodynia; assay type: in vivo, mouse; conditions: for effect on hyperalgesia or allodynia (vocalization, flinching, scratching): 4 millimolar with strychnine 200 micromolar in 5 microliters aCSF, p<0.01; for effect on hyperalgesia or allodynia (vocalization, flinching, scratching) / behavior of mice treated with compound and strychnine / side effects in treated animals: cisterna magna; for behavior of mice treated with compound and strychnine: 4 millimolar with strychnine 200 micromolar, compared with aCSF control; for side effects in treated animals: 4 millimolar; for analgesia against trigeminal hyperalgesia or allodynia compared with carbamazepine / analgesia against trigeminal hyperalgesia or allodynia compared with morphine: overall summary
Description: Strychnine when administered alone to the intact rodent mimics the allodynia of chronic pain resulting from damage to inhibitory amino acid functions in the central nervous system.
In the present example, injections into the cisterna magna of the mouse were performed as described by Reijneveld, Taphoorn, and Voerst (Journal of Neurooncology 42: 137-142, 1999). Each series of experiments consisted of 6 to 9 pairs of mice. […] In each session, two mice were injected with the strychnine solution within one minute of each other. […] A continuous video recording was made of all responses.

[3] = system: strychnine-induced allodynia; conditions: lumbar intrathecal
Description: Injections into the 6th lumbar intrathecal space were performed according to the method of Hylden and Wilcox (Brain Research 217: 212-215, 1981). The total volume used for injection in all experiments was 5 microliters of artificial cerebrospinal fluid (aCSF). In mice anesthetized with isoflurane, strychnine at 200 micromolar in 5 microliters of aCSF was injected either alone or in combination with compound (Ia) at concentrations of 4 to 8 millimolar in a total volume of 5 microliters of aCSF. In each experiment 2 mice were injected with 5 microliters of solution within one minute of each other. One of the mice received strychnine 200 micromolar in aCSF (control) and the other received the same volume with strychnine 200 micromolar in combination with the test compound (Ia). The mice were placed in a container designed such that they were unaware of the other, but could be simultaneously observed. The presence of flinching, scratching or vocalization in response to touching with a fine hair was noted every two minutes. Responses limited to lumbar segments 5 and 6, as well as originating from more caudal nerve distribution were considered as positive. A continuous video recording was made of all responses. Each experiment consisted of 6 to 9 pairs of mice. The blinded observer decided which animal had the greatest response to stimuli. A Wilcoxon signed rank test was used to determine the statistical significance of the results.

[4] = Overall behavioral observation of the animals studied; assay type: in vivo; conditions: all animals studied
[5] = system: pain of formalin injection in the mouse foot; assay: Formalin hindpaw licking test, intravenous pre-treatment; assay type: in vivo, mice; conditions: for analgesia in peripherally induced pain, intravenous administration: overall summary
Description: Groups of mice (n=10) were injected intravenously with a dose of 500 mg/kg of compound (Ia) at 10 minutes prior to subcutaneous formalin injection into the right hindpaw. After the injection of formalin (5% in 20 microliters), the animals were monitored for 40 min for licking activity.

[6] = Rotarod test (ataxia, central toxicity) after intravenous administration; conditions: for rotarod performance versus control saline and pre- versus post-injection: 500 mg/kg, 3 ml/kg, tail vein, 10 mice per group, ANOVA p<0.05
Description: Changes in central nervous system behavior viewed as ataxia were measured using the rotarod procedure in mice, described by Vaupel, McConn, and Cone (Journal of Pharmacology & Experimental Therapeutics, 230: 20-27, 1984). A 27-mm diameter rod was rotated at 5 rpm. At least 1 day before testing, mice were trained in three sessions on the rod for two consecutive 5 minute trials, separated by a 5 minute rest period. During the tests, each trial on the rotarod was limited to a 120 seconds maximum. For all experiments two control trials obtained 6 minutes apart preceded the injection (500 mg/kg, 3 ml/kg) of compound (Ib) or (Ic) into the tail vein. Each mouse was then given 2 trials, with 6 minutes between trials after the injection.
The data were analyzed as means±SEM of 10 mice in each group, and examined by analysis of variance (ANOVA) for multiple comparisons with the single control group. Level of significance was set to 5% (p<0.05).

Compound | activity against peripherally induced pain, administered to the lumbar cord [1] | effect on hyperalgesia or allodynia (vocalization, flinching, scratching) ([2]; FIG. 1) | behavior of mice treated with compound and strychnine [2] | side effects in treated animals [2] | analgesia against trigeminal hyperalgesia or allodynia compared with carbamazepine [2] | analgesia against trigeminal hyperalgesia or allodynia compared with morphine [2] | behavioral toxicity [4] | cumulative paw licking [1] | licking, early phase (reflecting acute pain) [1] | licking, late phase (reflecting chronic pain) [1] | rotarod performance versus control saline and pre- versus post-injection [6] | analgesia in peripherally induced pain, intravenous administration [5] | further results
CCC(C)(N)C(=O)O (racemic) [(Ia), Isovaline (2-Amino-2-methylbutanoic acid)] | active against acute and chronic pain induced peripherally | a great reduction and a total blockade of hyperalgesia or allodynia | identical to the mice which received the aCSF control injection without strychnine | no side effects such as sedation, movement disorders, or abnormal behavior | surpassed the analgesia produced by carbamazepine | to a much greater degree than the tested reference opioid, morphine | no observed behavioral toxicity | – | – | – | – | – | pairs of mice in which blinded observer identified presence of compound ([3]; 8 millimolar plus strychnine 200 micromolar, 5 microliter, FIG. 3, p<0.01): 6 out of 6; effect of sole administration (without strychnine) ([3]; 25 microliters at 10 millimolar, no strychnine): did not produce a significant result; duration of effect [3]: at least 60 minutes; sedation, movement disorders, abnormal behaviour in treated animals ([3]; 8 millimolar): no sedation, movement disorders, or abnormal behaviour; behavior of treated mice without concomitant strychnine injection ([3]; no strychnine, compared with aCSF control): identical to those mice that received aCSF control injection; licking, late phase (reflecting chronic pain) ([5]; 500 mg/kg intravenously, 10 minutes before formalin, 10 to 40 minutes, FIG. 5, p<0.001): significantly reduced
CCC(C)(N)C(=O)O (single isomer, unassigned) [(Ib), Isovaline (2-Amino-2-methylbutanoic acid)] | active against acute and chronic pain induced peripherally | The same effects were obtained | identical to the mice which received the aCSF control injection without strychnine | no side effects such as sedation, movement disorders, or abnormal behavior | surpassed the analgesia produced by carbamazepine | to a much greater degree than the tested reference opioid, morphine | no observed behavioral toxicity | significantly reduced | significantly reduced | significantly reduced | did not show significant differences | effective in producing analgesia | –
CCC(C)(N)C(=O)O (single isomer, unassigned) [(Ic), Isovaline (2-Amino-2-methylbutanoic acid)] | active against acute and chronic pain induced peripherally | The same effects were obtained | identical to the mice which received the aCSF control injection without strychnine | no side effects such as sedation, movement disorders, or abnormal behavior | surpassed the analgesia produced by carbamazepine | to a much greater degree than the tested reference opioid, morphine | no observed behavioral toxicity | significantly reduced | significantly reduced | significantly reduced | did not show significant differences | effective in producing analgesia | –
CCC(C)(N)C(=O)O (centres unmarked) [Formula (I), Isovaline (2-Amino-2-methylbutanoic acid)] | – | – | – | – | – | – | – | – | – | – | – | – | central nervous system toxicity, such as ataxia or other disturbances in conscious behavior ([6]; mouse, in vivo): no evidence; blood-brain-barrier crossing ([5]; inferred from analgesia after intravenous administration): crosses the blood-brain-barrier
NC(=O)N1c2ccccc2C2OC2c2ccccc21 (centres unmarked) [carbamazepine epoxide, reference compound] | – | – | – | – | – | – | – | – | – | – | – | – | analgesic effect ([2]; 30 mg/kg body weight, FIG. 1): an analgesic effect
CN1CC[C@]23c4c5ccc(O)c4O[C@H]2[C@@H](O)C=C[C@H]3[C@H]1C5 [morphine, reference compound] | – | – | – | – | – | – | – | – | – | – | – | – | responses to intracisternal injections (analgesia) ([2]; 1 mg/kg body weight, intracisternal, FIG. 1): poor or absent
